In ChEMBL document CHEMBL1135648, “Synthesis and evaluation of no-carrier-added 8-cyclopentyl-3-(3-[(18)F]fluoropropyl)-1-propylxanthine ([(18)F]CPFPX): a potent and selective A(1)-adenosine receptor antagonist for in vivo imaging” (J Med Chem, 2002):

What was measured:
Mus musculus [1] = assay: In vivo biodistribution in NMRI (Naval Medical Research Institute) mice blood at the dose of 0.15-0.2 nmol at 60 min; format: ADME, organism-based; conditions: 1 h
Mus musculus [2] = assay: In vivo biodistribution in NMRI (Naval Medical Research Institute) mice bone at the dose of 0.15-0.2 nmol at 10 min; format: ADME, organism-based, Bone element
Mus musculus [3] = assay: In vivo biodistribution in NMRI (Naval Medical Research Institute) mice lung at the dose of 0.15-0.2 nmol at 20 min; format: ADME, organism-based
Mus musculus [4] = assay: In vivo biodistribution in NMRI (Naval Medical Research Institute) mice lung at the dose of 0.15-0.2 nmol at 2 min; format: ADME, organism-based
Mus musculus [5] = assay: In vivo biodistribution in NMRI (Naval Medical Research Institute) mice lung at the dose of 0.15-0.2 nmol at 40 min; format: ADME, organism-based
Mus musculus [6] = assay: In vivo biodistribution in NMRI (Naval Medical Research Institute) mice lung at the dose of 0.15-0.2 nmol at 5 min; format: ADME, organism-based
Mus musculus [7] = assay: In vivo biodistribution in NMRI (Naval Medical Research Institute) mice lung at the dose of 0.15-0.2 nmol at 60 min; format: ADME, organism-based; conditions: 1 h
Mus musculus [8] = assay: In vivo biodistribution in NMRI (Naval Medical Research Institute) mice pancreas at the dose of 0.15-0.2 nmol at 10 min; format: ADME, organism-based
Mus musculus [9] = assay: In vivo biodistribution in NMRI (Naval Medical Research Institute) mice pancreas at the dose of 0.15-0.2 nmol at 2 min; format: ADME, organism-based
Mus musculus [10] = assay: In vivo biodistribution in NMRI (Naval Medical Research Institute) mice pancreas at the dose of 0.15-0.2 nmol at 40 min; format: ADME, organism-based
Mus musculus [11] = assay: In vivo biodistribution in NMRI (Naval Medical Research Institute) mice pancreas at the dose of 0.15-0.2 nmol at 5 min; format: ADME, organism-based
Mus musculus [12] = assay: In vivo biodistribution in NMRI (Naval Medical Research Institute) mice pancreas at the dose of 0.15-0.2 nmol at 60 min; format: ADME, organism-based; conditions: 1 h
Mus musculus [13] = assay: In vivo biodistribution in NMRI (Naval Medical Research Institute) mice pnacreas at the dose of 0.15-0.2 nmol at 20 min; format: ADME, organism-based
Mus musculus [14] = assay: In vivo biodistribution in NMRI (Naval Medical Research Institute) mice splee nat the dose of 0.15-0.2 nmol at 10 min; format: ADME, organism-based
Mus musculus [15] = assay: In vivo biodistribution in NMRI (Naval Medical Research Institute) mice spleen at the dose of 0.15-0.2 nmol at 20 min; format: ADME, organism-based
Mus musculus [16] = assay: In vivo biodistribution in NMRI (Naval Medical Research Institute) mice spleen at the dose of 0.15-0.2 nmol at 2 min; format: ADME, organism-based
Mus musculus [17] = assay: In vivo biodistribution in NMRI (Naval Medical Research Institute) mice spleen at the dose of 0.15-0.2 nmol at 40 min; format: ADME, organism-based
Mus musculus [18] = assay: In vivo biodistribution in NMRI (Naval Medical Research Institute) mice spleen at the dose of 0.15-0.2 nmol at 5 min; format: ADME, organism-based
Mus musculus [19] = assay: In vivo biodistribution in NMRI (Naval Medical Research Institute) mice spleen at the dose of 0.15-0.2 nmol at 60 min; format: ADME, organism-based; conditions: 1 h
Adenosine receptor A1 [20] = biological target: T1, Adenosine receptor A1 (Bos taurus, UniProt P28190); assay: In vitro binding affinity for Adenosine A1 receptor of bovine cortex
T1 sequence (P28190 whole entry): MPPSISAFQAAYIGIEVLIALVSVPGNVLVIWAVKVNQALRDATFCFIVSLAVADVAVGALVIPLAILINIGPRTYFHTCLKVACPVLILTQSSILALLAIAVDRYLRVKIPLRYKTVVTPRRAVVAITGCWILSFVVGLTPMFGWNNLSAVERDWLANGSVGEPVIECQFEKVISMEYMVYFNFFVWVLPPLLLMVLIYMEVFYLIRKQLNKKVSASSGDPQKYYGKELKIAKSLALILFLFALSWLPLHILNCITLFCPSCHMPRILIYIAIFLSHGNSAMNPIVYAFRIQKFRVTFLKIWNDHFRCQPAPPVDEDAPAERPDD

Mus musculus [21] = assay: In vivo biodistribution in NMRI (Naval Medical Research Institute) mice liver at the dose of 0.15-0.2 nmol at 10 min; format: ADME, organism-based
Mus musculus [22] = assay: In vivo biodistribution in NMRI (Naval Medical Research Institute) mice liver at the dose of 0.15-0.2 nmol at 20 min; format: ADME, organism-based
Mus musculus [23] = assay: In vivo biodistribution in NMRI (Naval Medical Research Institute) mice liver at the dose of 0.15-0.2 nmol at 2 min; format: ADME, organism-based
Mus musculus [24] = assay: In vivo biodistribution in NMRI (Naval Medical Research Institute) mice liver at the dose of 0.15-0.2 nmol at 40 min; format: ADME, organism-based
Mus musculus [25] = assay: In vivo biodistribution in NMRI (Naval Medical Research Institute) mice liver at the dose of 0.15-0.2 nmol at 5 min; format: ADME, organism-based
Mus musculus [26] = assay: In vivo biodistribution in NMRI (Naval Medical Research Institute) mice liver at the dose of 0.15-0.2 nmol at 60 min; format: ADME, organism-based; conditions: 1 h
Mus musculus [27] = assay: In vivo biodistribution in NMRI (Naval Medical Research Institute) mice lung at the dose of 0.15-0.2 nmol at 10 min; format: ADME, organism-based
Adenosine receptor A2a = Adenosine receptor A2a (Rattus norvegicus, UniProt P30543); assay: In vitro binding affinity at Adenosine A2A receptor of rat cortex
Adenosine receptor A2a, sequence (P30543 whole entry): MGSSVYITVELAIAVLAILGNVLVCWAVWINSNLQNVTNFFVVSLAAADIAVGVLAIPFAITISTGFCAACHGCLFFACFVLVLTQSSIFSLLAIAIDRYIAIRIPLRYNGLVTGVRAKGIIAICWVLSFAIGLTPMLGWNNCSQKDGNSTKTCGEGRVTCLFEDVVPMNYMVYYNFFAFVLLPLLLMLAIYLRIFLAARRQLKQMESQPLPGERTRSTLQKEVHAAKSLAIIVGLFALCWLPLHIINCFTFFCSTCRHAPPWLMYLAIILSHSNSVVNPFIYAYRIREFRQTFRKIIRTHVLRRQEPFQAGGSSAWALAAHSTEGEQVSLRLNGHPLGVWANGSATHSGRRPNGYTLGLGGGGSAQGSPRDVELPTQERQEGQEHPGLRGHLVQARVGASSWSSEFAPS

Mus musculus [28] = assay: In vivo biodistribution in NMRI (Naval Medical Research Institute) mice blood at the dose of 0.15-0.2 n mol at 2 min; format: ADME, organism-based
Adenosine receptor A1 [29] = biological target: T2, Adenosine receptor A1 (Homo sapiens, UniProt P30542); assay: In vitro binding affinity for human Adenosine A1 receptor expressed in CHO-K1 cells; format: cell-based
T2 sequence (P30542 whole entry): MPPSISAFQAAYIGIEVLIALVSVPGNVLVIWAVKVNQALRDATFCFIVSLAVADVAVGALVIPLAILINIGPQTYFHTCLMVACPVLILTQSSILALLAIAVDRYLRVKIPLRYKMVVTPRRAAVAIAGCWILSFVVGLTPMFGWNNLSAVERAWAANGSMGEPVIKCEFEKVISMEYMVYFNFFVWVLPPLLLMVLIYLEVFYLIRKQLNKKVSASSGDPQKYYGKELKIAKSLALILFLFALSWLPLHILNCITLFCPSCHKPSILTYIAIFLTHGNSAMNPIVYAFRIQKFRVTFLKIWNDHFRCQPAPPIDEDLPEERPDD

Adenosine receptor A1 [30] = biological target: T3, Adenosine receptor A1 (Rattus norvegicus, UniProt P25099); assay: In vitro binding affinity at rat Adenosine A1 receptor
T3 sequence (P25099 whole entry): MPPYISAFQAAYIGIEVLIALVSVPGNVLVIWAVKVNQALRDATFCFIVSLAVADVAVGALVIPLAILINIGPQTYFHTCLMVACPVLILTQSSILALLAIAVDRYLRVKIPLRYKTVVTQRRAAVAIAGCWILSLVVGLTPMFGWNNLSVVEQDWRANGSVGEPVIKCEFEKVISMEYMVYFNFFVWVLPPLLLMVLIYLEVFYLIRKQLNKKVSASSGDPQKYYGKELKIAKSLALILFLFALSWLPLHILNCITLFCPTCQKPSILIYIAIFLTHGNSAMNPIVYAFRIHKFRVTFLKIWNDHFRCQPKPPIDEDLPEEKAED

[31] = Ultrafiltration in human plasma; format: functional
Mus musculus [32] = assay: In vivo biodistribution in NMRI (Naval Medical Research Institute) mice bone at the dose of 0.15-0.2 nmol at 20 min; format: ADME, organism-based, Bone element

- ID/g (Mus musculus [1]): 1.55%
- ID/g (Mus musculus [2]): 1.71%
- ID/g (Mus musculus [3]): 5.75%
- ID/g (Mus musculus [4]): 5.35%
- ID/g (Mus musculus [5]): 5.7%
- ID/g (Mus musculus [6]): 4.22%
- ID/g (Mus musculus [7]): 2.43%
- ID/g (Mus musculus [8]): 4.29%
- ID/g (Mus musculus [9]): 3.58%
- ID/g (Mus musculus [10]): 3.22%
- ID/g (Mus musculus [11]): 3.35%
- ID/g (Mus musculus [12]): 1.03%
- ID/g (Mus musculus [13]): 4.58%
- ID/g (Mus musculus [14]): 1.77%
- ID/g (Mus musculus [15]): 1.78%
- ID/g (Mus musculus [16]): 2.25%
- ID/g (Mus musculus [17]): 1.79%
- ID/g (Mus musculus [18]): 1.56%
- ID/g (Mus musculus [19]): 0.84%
- Ki (Adenosine receptor A1 [20]): 0.18 nM
- ID/g (Mus musculus [21]): 8.64%
- ID/g (Mus musculus [22]): 9.93%
- ID/g (Mus musculus [23]): 9.34%
- ID/g (Mus musculus [24]): 9.61%
- ID/g (Mus musculus [25]): 7.44%
- ID/g (Mus musculus [26]): 4.36%
- ID/g (Mus musculus [27]): 5.79%
- Ki (Adenosine receptor A2a): 812 nM
- ID/g (Mus musculus [28]): 11.2%
- Kd (Adenosine receptor A1 [29]): 1.26 nM
- Kd (Adenosine receptor A1 [30]): 0.63 nM
- ID/g (Mus musculus [32]): 2.02%
Structure (SMILES): CCCn1c(=O)c2nc(C3CCCC3)[nH]c2n(CCC[18F])c1=O
- Ultrafiltration [31]: 86
